From patent US8758816B2, “Compositions comprising azelastine and methods of use thereof” (priority 2004, dated 2014)

Tested on: patients with seasonal allergic rhinitis (SAR)
Assay: MP 428 study: individual symptom severity scores (runny nose, itchy nose, sneezing, congestion; 0-3 scale)
Format: in vivo, human
Conditions: Intent-to-Treat Population
Procedure: A two-week, randomized, double-blind study, which evaluated the effects of the co-administration of ASTELIN® (azelastine hydrochloride (HCl)) and FLONASE® (fluticasone propionate) compared to either product alone in patients with seasonal allergic rhinitis (SAR) was conducted during the 2006 Texas mountain cedar season. After a 5-day placebo lead-in period, 151 patients with moderate-to-severe allergic rhinitis symptoms were randomized to either: (1) (49 total patients) ASTELIN® (azelastine hydrochloride (HCl)) plus placebo saline nasal spray 2 sprays per nostril, 15 minutes apart, twice daily (AM & PM); (2) (50 total patients) FLONASE® (fluticasone propionate) plus placebo saline nasal spray, 2 sprays per nostril, 15 minutes apart, once daily (AM) and two sessions of placebo saline nasal spray, 2 sprays per nostril, 15 minutes apart (PM); or (3) (52 total patients) the co-administration of ASTELIN® (azelastine hydrochloride (HCl)) 2 sprays per nostril plus FLONASE® (fluticasone propionate) 2 sprays per nostril (AM), 15 minutes apart, and ASTELIN® (azelastine hydrochloride (HCl)) 2 sprays per nostril plus placebo saline nasal spray, 15 minutes apart, (PM) for a 2-week double-blind treatment period.
The primary efficacy variable was the change from baseline in the Total Nasal Symptom Score (TNSS), which comprised sneezing, itchy nose, runny nose, and nasal congestion (individual symptoms scores were assigned a value between 0 and 3, where 0=no symptoms and 3=severe symptoms). This study was not statistically designed to assess the differences between ASTELIN® and FLONASE®.
The results of the clinical trial are summarized and presented in Appendix A hereinbelow and in FIGS. 1-6. […] FIGS. 2-5 show the mean improvement in severity score (0-3 scale) from baseline for the symptoms of runny nose, itchy nose, sneezing and congestion, respectively.

For CCC(=O)O[C@]1(C(=O)SCF)[C@H](C)C[C@H]2[C@@H]3C[C@H](F)C4=CC(=O)C=C[C@]4(C)[C@@]3(F)[C@@H](O)C[C@@]21C [Fluticasone, fluticasone propionate], the “Percent Change from Baseline in AM and PM Combined Nasal Symptom Score: Congestion, LS Mean” value (shortened to “Percent Change … Congestion, LS Mean”) (Day 5) was −18.74%, the “Percent Change from Baseline in AM and PM Combined Nasal Symptom Score: Congestion, Mean” value (“Percent Change from Baseline … Congestion, Mean” below) (Day 5) was −19.38% and the “Percent Change from Baseline in AM and PM Combined Nasal Symptom Score: Congestion, Median” value (shortened to “Percent Change … Congestion, Median”) (Day 5) was −14.29%. The “Percent Change from Baseline in AM and PM Combined Nasal Symptom Score: Itchy Nose, LS Mean” value (shortened to “Percent Change … Itchy Nose, LS Mean”) (Day 5) was −25.02%, the “Percent Change from Baseline in AM and PM Combined Nasal Symptom Score: Itchy Nose, Mean” value (“Percent Change from Baseline … Itchy Nose, Mean” below) (Day 5) was −24.64% and the “Percent Change from Baseline in AM and PM Combined Nasal Symptom Score: Itchy Nose, Median” value (shortened to “Percent Change … Itchy Nose, Median”) (Day 5) was −25.00%. The “Percent Change from Baseline in AM and PM Combined Nasal Symptom Score: Runny Nose, LS Mean” value (shortened to “Percent Change … Runny Nose, LS Mean”) (Day 5) was −22.06%, the “Percent Change from Baseline in AM and PM Combined Nasal Symptom Score: Runny Nose, Mean” value (“Percent Change from Baseline … Runny Nose, Mean” below) (Day 5) was −22.31% and the “Percent Change from Baseline in AM and PM Combined Nasal Symptom Score: Runny Nose, Median” value (shortened to “Percent Change … Runny Nose, Median”) (Day 5) was −21.31%. For the same molecule, the “Percent Change from Baseline in AM and PM Combined Nasal Symptom Score: Sneezing, LS Mean” value (shortened to “Percent Change from Baseline … Sneezing, LS Mean”) (Day 5) was −35.40%, the “Percent Change from Baseline in AM and PM Combined Nasal Symptom Score: Sneezing, Mean” value (from here on “Percent Change from Baseline … Sneezing, Mean”) (Day 5) was −34.14% and the “Percent Change from Baseline in AM and PM Combined Nasal Symptom Score: Sneezing, Median” value (from here on “Percent Change from Baseline … Sneezing, Median”) (Day 5) was −33.33%. The “Change from Baseline in AM and PM Combined Nasal Symptom Score: Congestion, LS Mean” value (Day 6) was −1.03, the “Change from Baseline in AM and PM Combined Nasal Symptom Score: Congestion, Mean” value (Day 6) was −1.10 and the “Change from Baseline in AM and PM Combined Nasal Symptom Score: Congestion, Median” value (Day 6) was −0.83. The “Change from Baseline in AM and PM Combined Nasal Symptom Score: Itchy Nose, LS Mean” value (Day 6) was −1.21, the “Change from Baseline in AM and PM Combined Nasal Symptom Score: Itchy Nose, Mean” value (Day 6) was −1.21 and the “Change from Baseline in AM and PM Combined Nasal Symptom Score: Itchy Nose, Median” value (Day 6) was −1.00. For the same molecule, the “Change from Baseline in AM and PM Combined Nasal Symptom Score: Runny Nose, LS Mean” value (Day 6) was −1.35, the “Change from Baseline in AM and PM Combined Nasal Symptom Score: Runny Nose, Mean” value (Day 6) was −1.35 and the “Change from Baseline in AM and PM Combined Nasal Symptom Score: Runny Nose, Median” value (Day 6) was −1.00. For the same molecule, the “Change from Baseline in AM and PM Combined Nasal Symptom Score: Sneezing, LS Mean” value (Day 6) was −1.51, the “Change from Baseline in AM and PM Combined Nasal Symptom Score: Sneezing, Mean” value (Day 6) was −1.44 and the “Change from Baseline in AM and PM Combined Nasal Symptom Score: Sneezing, Median” value (Day 6) was −1.27. The “Percent Change … Congestion, LS Mean” value (Day 6) was −19.32%, the “Percent Change from Baseline … Congestion, Mean” value (Day 6) was −20.16% and the “Percent Change … Congestion, Median” value (Day 6) was −14.29%. For the same molecule, the “Percent Change … Itchy Nose, LS Mean” value (Day 6) was −27.12%, the “Percent Change from Baseline … Itchy Nose, Mean” value (Day 6) was −26.87% and the “Percent Change … Itchy Nose, Median” value (Day 6) was −24.76%. For the same molecule, the “Percent Change … Runny Nose, LS Mean” value (Day 6) was −22.60%, the “Percent Change from Baseline … Runny Nose, Mean” value (Day 6) was −22.47% and the “Percent Change … Runny Nose, Median” value (Day 6) was −18.64%. For the same molecule, the “Percent Change from Baseline … Sneezing, LS Mean” value (Day 6) was −32.10%, the “Percent Change from Baseline … Sneezing, Mean” value (Day 6) was −31.22% and the “Percent Change from Baseline … Sneezing, Median” value (Day 6) was −32.77%. For the same molecule, the “Change from Baseline in AM and PM Combined Nasal Symptom Score: Congestion, LS Mean” value (Day 7) was −1.03, the “Change from Baseline in AM and PM Combined Nasal Symptom Score: Congestion, Mean” value (Day 7) was −1.10 and the “Change from Baseline in AM and PM Combined Nasal Symptom Score: Congestion, Median” value (Day 7) was −1.08. The “Change from Baseline in AM and PM Combined Nasal Symptom Score: Itchy Nose, LS Mean” value (Day 7) was −1.30, the “Change from Baseline in AM and PM Combined Nasal Symptom Score: Itchy Nose, Mean” value (Day 7) was −1.27 and the “Change from Baseline in AM and PM Combined Nasal Symptom Score: Itchy Nose, Median” value (Day 7) was −1.00. For the same molecule, the “Change from Baseline in AM and PM Combined Nasal Symptom Score: Runny Nose, LS Mean” value (Day 7) was −1.28, the “Change from Baseline in AM and PM Combined Nasal Symptom Score: Runny Nose, Mean” value (Day 7) was −1.31 and the “Change from Baseline in AM and PM Combined Nasal Symptom Score: Runny Nose, Median” value (Day 7) was −1.45. The “Change from Baseline in AM and PM Combined Nasal Symptom Score: Sneezing, LS Mean” value (Day 7) was −1.44, the “Change from Baseline in AM and PM Combined Nasal Symptom Score: Sneezing, Mean” value (Day 7) was −1.33 and the “Change from Baseline in AM and PM Combined Nasal Symptom Score: Sneezing, Median” value (Day 7) was −1.20. For the same molecule, the “Percent Change … Congestion, LS Mean” value (Day 7) was −19.42%, the “Percent Change from Baseline … Congestion, Mean” value (Day 7) was −20.17% and the “Percent Change … Congestion, Median” value (Day 7) was −21.31%. For the same molecule, the “Percent Change … Itchy Nose, LS Mean” value (Day 7) was −27.79%, the “Percent Change from Baseline … Itchy Nose, Mean” value (Day 7) was −26.92% and the “Percent Change … Itchy Nose, Median” value (Day 7) was −23.55%. The “Percent Change … Runny Nose, LS Mean” value (Day 7) was −18.01%, the “Percent Change from Baseline … Runny Nose, Mean” value (Day 7) was −18.63% and the “Percent Change … Runny Nose, Median” value (Day 7) was −28.99%. For the same molecule, the “Percent Change from Baseline … Sneezing, LS Mean” value (Day 7) was −31.86%, the “Percent Change from Baseline … Sneezing, Mean” value (Day 7) was −30.14% and the “Percent Change from Baseline … Sneezing, Median” value (Day 7) was −31.32%. For the same molecule, the “Change from Baseline in AM and PM Combined Nasal Symptom Score: Congestion, LS Mean” value (Day 8) was −0.94, the “Change from Baseline in AM and PM Combined Nasal Symptom Score: Congestion, Mean” value (Day 8) was −0.98 and the “Change from Baseline in AM and PM Combined Nasal Symptom Score: Congestion, Median” value (Day 8) was −0.83. For the same molecule, the “Change from Baseline in AM and PM Combined Nasal Symptom Score: Itchy Nose, LS Mean” value (Day 8) was −1.33, the “Change from Baseline in AM and PM Combined Nasal Symptom Score: Itchy Nose, Mean” value (Day 8) was −1.29 and the “Change from Baseline in AM and PM Combined Nasal Symptom Score: Itchy Nose, Median” value (Day 8) was −1.15. The “Change from Baseline in AM and PM Combined Nasal Symptom Score: Runny Nose, LS Mean” value (Day 8) was −0.95, the “Change from Baseline in AM and PM Combined Nasal Symptom Score: Runny Nose, Mean” value (Day 8) was −0.98 and the “Change from Baseline in AM and PM Combined Nasal Symptom Score: Runny Nose, Median” value (Day 8) was −0.73. For the same molecule, the “Change from Baseline in AM and PM Combined Nasal Symptom Score: Sneezing, LS Mean” value (Day 8) was −1.41, the “Change from Baseline in AM and PM Combined Nasal Symptom Score: Sneezing, Mean” value (Day 8) was −1.29 and the “Change from Baseline in AM and PM Combined Nasal Symptom Score: Sneezing, Median” value (Day 8) was −1.25. The “Percent Change … Congestion, LS Mean” value (Day 8) was −17.55%, the “Percent Change from Baseline … Congestion, Mean” value (Day 8) was −17.88% and the “Percent Change … Congestion, Median” value (Day 8) was −14.29%. For the same molecule, the “Percent Change … Itchy Nose, LS Mean” value (Day 8) was −28.16%, the “Percent Change from Baseline … Itchy Nose, Mean” value (Day 8) was −27.33% and the “Percent Change … Itchy Nose, Median” value (Day 8) was −30.22%. The “Percent Change … Runny Nose, LS Mean” value (Day 8) was −11.82%, the “Percent Change from Baseline … Runny Nose, Mean” value (Day 8) was −12.38% and the “Percent Change … Runny Nose, Median” value (Day 8) was −14.29%. For the same molecule, the “Percent Change from Baseline … Sneezing, LS Mean” value (Day 8) was −28.16%, the “Percent Change from Baseline … Sneezing, Mean” value (Day 8) was −26.04% and the “Percent Change from Baseline … Sneezing, Median” value (Day 8) was −31.03%.
